This is an account of results in patent publication EP1075186B1, “METHOD OF HSV PROPHYLAXIS” (The Children's Hospital Research Foundation, priority 1998, dated 1999).

Data set [1] concerns human foreskin fibroblast (HFF) cell monolayers. As to the kind of experiment: Toxicity effects controls (sham-inoculated compound treated HFF monolayers). Type of data set: cell-based. Conditions: for TOXICITY EFFECTS CONTROL: Experiment 4, Table 10. The text has this: Sham-incolulated, non-treated HFF cell monolayers were included along with the drug-treated monolayers as "cell monolayer controls". • 1. HSV-1 inoculated, non-compound treated HFF monolayers were included as "positive controls"; and • 2.
In the tables, the symbols have the meaning indicated: + = toxic; - = no toxicity; +/- = mild toxicity; ND = not done; T = toxicity effects interfered with CPE rating; CPE = cytopathic effect.

Data set [2] concerns HSV-2 strain 186. As to the kind of experiment: Mouse genital HSV-2 model, intravaginal prophylaxis. Type of data set: in vivo, Swiss Webster mice. As to conditions: repeat study.
Data set [3] concerns VZV. Briefly: In vitro assay with VZV on HFF cell monolayers. Type of data set: cell-based. Conditions: Example 2, Table 17, 0.1 mg/ml, footnote: this toxicity observation is questionable. As to the method: VZV was grown to a CPE level […] of 3-4 + on HFF cell monolayers. The VZV was scraped from the flask, centrifuged and the cell pellet was resuspended in 10 ml of complete medium. 100 to 200 µl of the VZV cell associated inoculum was inoculated onto confluent HFF cell monolayers by absorption for 60 minutes at 37°C. After absorption of the virus, the inoculum was aspirated from the cell monolayers.
The VZV-infected monolayers were rehydrated with medium containing the appropriate concentrations of compounds to be tested. All monolayers were incubated at 37°C. Development of VZV cytopathology was monitored daily for 7 days by inverted light microscopy. Titers were calculated by multiple regression analysis.

Data set [4] concerns HSV-2 strain 186. As to the kind of experiment: Mouse genital HSV-2 model, intravaginal prophylaxis. The data set is classed as in vivo, Swiss Webster mice. Here is the method:
Sixty female Swiss Webster mice pretreated with medroxyprogesterone acetate were randomized to four groups of 15 to receive either Saline (control), 2 % Acyclovir, 2 % Compound 96, or 0.5% Compound 96. Animals were anesthetized by intraperitoneal injection of sodium pentabarbital and then administered 15 µl of control or test compound intravaginally in one treatment. They were then immediately challenged by intravaginal instillation with 15 µl of a suspension containing 10^4 plaque forming units HSV-2 strain 186. Vaginal swabs were collected on days 1 and 2 post-inoculation (PI) to assess the effect of treatment on vaginal replication in the genital tract. In addition, all animals were examined daily until day 21 PI for mortality and signs of infection (erythema, hair loss and hind limb paralysis).

Where [5] appears, read: 0.001 mg/ml, 24 hrs post incubation.
Setting [6] is: 0.001 mg/ml, 48 hrs post incubation.
The mark [7] stands for this setting: 0.01 mg/ml, 24 hrs post incubation.
Where [8] appears, read: 0.01 mg/ml, 48 hrs post incubation.
[9] abbreviates: 0.1 mg/ml, 24 hrs post incubation.
The mark [10] stands for this setting: 0.1 mg/ml, 48 hrs post incubation.
Setting [11] is: 0.5 mg/ml, 24 hrs post incubation.
[12] abbreviates: 0.5 mg/ml, 48 hrs post incubation.
The mark [13] stands for this setting: 1 mg/ml, 24 hrs post incubation.
Where [14] appears, read: 1 mg/ml, 48 hrs post incubation.
Setting [15] is: 5 mg/ml, 24 hrs post incubation.
[16] abbreviates: 5 mg/ml, 48 hrs post incubation.
Where [17] appears, read: Experiment 2, Table 4, 0.001 mg/ml, 24 h PI.
Setting [18] is: Experiment 2, Table 4, 0.001 mg/ml, 48 h PI.
The mark [19] stands for this setting: Experiment 2, Table 4, 0.01 mg/ml, 24 h PI.
Where [20] appears, read: Experiment 2, Table 4, 0.01 mg/ml, 48 h PI.
The mark [21] stands for this setting: Experiment 2, Table 4, 0.1 mg/ml, 24 h PI.
[22] abbreviates: Experiment 2, Table 4, 0.1 mg/ml, 48 h PI.
The mark [23] stands for this setting: Experiment 2, Table 4, 1 mg/ml, 24 h PI.
Setting [24] is: Experiment 2, Table 4, 1 mg/ml, 48 h PI.
Setting [25] is: Experiment 3, Table 7, 0.001 mg/ml, 24 hrs post incubation.
The mark [26] stands for this setting: Experiment 3, Table 7, 0.001 mg/ml, 48 hrs post incubation.
The mark [27] stands for this setting: Experiment 3, Table 7, 0.01 mg/ml, 24 hrs post incubation.
The mark [28] stands for this setting: Experiment 3, Table 7, 0.01 mg/ml, 48 hrs post incubation.
Setting [29] is: Experiment 3, Table 7, 0.1 mg/ml, 24 hrs post incubation.
The mark [30] stands for this setting: Experiment 3, Table 7, 0.1 mg/ml, 48 hrs post incubation.
Setting [31] is: Experiment 3, Table 7, 0.5 mg/ml, 24 hrs post incubation.
Setting [32] is: Experiment 3, Table 7, 0.5 mg/ml, 48 hrs post incubation.
Setting [33] is: Experiment 3, Table 7, 1 mg/ml, 24 hrs post incubation.
[34] abbreviates: Experiment 3, Table 7, 1 mg/ml, 48 hrs post incubation.
[35] abbreviates: Experiment 3, Table 7, 5 mg/ml, 24 hrs post incubation.
The mark [36] stands for this setting: Experiment 3, Table 7, 5 mg/ml, 48 hrs post incubation.
Where [37] appears, read: Experiment 5, Table 12, 48 Hours Post Incubation, 0.001 mg/ml.
Setting [38] is: Experiment 5, Table 12, 48 Hours Post Incubation, 0.01 mg/ml.
Where [39] appears, read: Experiment 5, Table 12, 48 Hours Post Incubation, 1 mg/ml.
Setting [40] is: Experiment 5, Table 12, 48 Hours Post Incubation, 2 mg/ml.
[41] abbreviates: Experiment 5, Table 12, 48 Hours Post Incubation, 5 mg/ml.
[42] abbreviates: Experiment 5, cell rounding, detaching from the monolayer, increased granularity, loss of normal morphology.

`CC1=[N+]2CC[N+]3=C(C)C=C(c4ccccc4)[O][Co-3]23([n+]2cc[nH]c2C)([n+]2cc[nH]c2C)[O]C(c2ccccc2)=C1` [Compound 102]: the “TOXICITY EFFECTS CONTROL” value in data set [1] (setting [5]), in data set [1] (setting [6]), in data set [1] (setting [7]), in data set [1] (setting [8]), in data set [1] (setting [9]) and in data set [1] (setting [10]) was “-” in each case. In addition, the “TOXICITY EFFECTS CONTROL” value is “-” in data set [1] (setting [11]); “-” in data set [1] (setting [12]); “+/-” in data set [1] (setting [13]); “+/-” in data set [1] (setting [14]); “+/-” in data set [1] (setting [15]); “+” in data set [1] (setting [16]).
Take `CC1=CC(C)=[N+]2CC[N+]3=C(C)C=C(C)[O][Co-3]23([n+]2cc[nH]c2C)([n+]2cc[nH]c2C)[O]1` [Compound 96]: the “TOXICITY EFFECTS CONTROLS” value in data set [1] (Experiment 1, Table 1, 0.001 mg/ml, 24 h) is given as “-”; in data set [1] (Experiment 1, Table 1, 0.001 mg/ml, 48 h), “-”; in data set [1] (Experiment 1, Table 1, 0.01 mg/ml, 24 h), “-”; in data set [1] (Experiment 1, Table 1, 0.01 mg/ml, 48 h) it was “-”; in data set [1] (Experiment 1, Table 1, 0.1 mg/ml, 24 h) it was “-”; in data set [1] (Experiment 1, Table 1, 0.1 mg/ml, 48 h), “-”. The “TOXICITY EFFECTS CONTROLS” value is on record as “-” in data set [1] (Experiment 1, Table 1, 1 mg/ml, 24 h); “-” in data set [1] (Experiment 1, Table 1, 1 mg/ml, 48 h); “-” in data set [1] (setting [17]); “-” in data set [1] (setting [18]); “-” in data set [1] (setting [19]); “-” in data set [1] (setting [20]). The “TOXICITY EFFECTS CONTROLS” value in data set [1] (setting [21]), in data set [1] (setting [22]), in data set [1] (setting [23]), in data set [1] (setting [24]), in data set [1] (setting [25]) and in data set [1] (setting [26]) was “-” each time. The “TOXICITY EFFECTS CONTROLS” value in data set [1] (setting [27]) was “-”; in data set [1] (setting [28]) it was “-”; in data set [1] (setting [29]) it was “+/-”; in data set [1] (setting [30]), “+/-”; in data set [1] (setting [31]) it was “-”; in data set [1] (setting [32]), “-”. Moreover, the “TOXICITY EFFECTS CONTROLS” value in data set [1] (setting [33]) is given as “-”; in data set [1] (setting [34]) it was “+/-”; in data set [1] (setting [35]) it was “+/-”; in data set [1] (setting [36]), “+/-”; in data set [1] (setting [37]), “-”; in data set [1] (setting [38]) it was “-”. The figures for the “TOXICITY EFFECTS CONTROLS” value in data set [1] (setting [39]), in data set [1] (setting [40]) and in data set [1] (setting [41]) were “-”, “+/-” and “+/-”, respectively. Besides, the toxicity entry in data set [1] (Experiment 1, 1 mg/ml) is “lack of toxicity”; in data set [1] (setting [42]), “more pronounced in the 0.5 and the 0.1 mg/ml concentrations”. The “TOXICITY EFFECTS CONTROL” value in data set [1] (setting [5]) is “-”; in data set [1] (setting [6]), “-”; in data set [1] (setting [7]), “-”; in data set [1] (setting [8]), “-”; in data set [1] (setting [9]), “+/-”; in data set [1] (setting [10]) it was “+/-”. The “TOXICITY EFFECTS CONTROL” value in data set [1] (setting [11]) is listed as “-”; in data set [1] (setting [12]), “-”; in data set [1] (setting [13]), “+/-”; in data set [1] (setting [14]) it was “+/-”; in data set [1] (setting [15]), “+/-”; in data set [1] (setting [16]), “+”. In addition, the “protection from visible infection and death” value in data set [2] (concentrations of 0.1 % or more) is “completely protected”. Moreover, the “animals protected from death” value in data set [2] (lowest concentration of 0.01 %) was 6 of 10. Also, in data set [3], the “VIRUCIDAL EFFICACY 7 Days Post Inoculation Efficacy” value was “T?”. The “signs of genital disease” value in data set [4] (2 % and 0.5% groups, 15 mice each) is “none of these animals developed any signs of genital disease”. The mortality result in data set [4] (2 % and 0.5% groups, 15 mice each, to day 21 PI) is “all lived”. Also, the vaginal herpes infection result in data set [4] (topical (intravaginal) application before HSV-2 challenge) is listed as “completely blocked”. The “virus in the genital tract” value in data set [4] (vaginal swabs on day 1 or 2 PI) is reported as “no detectable virus”.
Consider `CC1=C(Cl)C(C)=[N+]2CC[N+]3=C(C)C(Cl)=C(C)[O][Co-3]23([n+]2cc[nH]c2)([n+]2cc[nH]c2)[O]1` [Compound 93], for which the “TOXICITY EFFECTS CONTROLS” value in data set [1] (setting [25]) was “-”; in data set [1] (setting [26]) it was “-”; in data set [1] (setting [27]), “-”; in data set [1] (setting [28]), “-”; in data set [1] (setting [29]), “-”; in data set [1] (setting [30]), “+/-”. For the same molecule, the “TOXICITY EFFECTS CONTROLS” value in data set [1] (setting [31]) is recorded as “-”; in data set [1] (setting [32]), “-”; in data set [1] (setting [33]), “-”; in data set [1] (setting [34]) it was “-”; in data set [1] (setting [35]) it was “+/-”; in data set [1] (setting [36]), “+/-”. The “TOXICITY EFFECTS CONTROLS” value is “-” in data set [1] (setting [37]), “-” in data set [1] (setting [38]) and “+/-” in data set [1] (setting [39]). The toxicity result in data set [1] (setting [42]) is “more pronounced in the 0.5 and the 0.1 mg/ml concentrations”. For the same molecule, in data set [3], the “VIRUCIDAL EFFICACY 7 Days Post Inoculation Efficacy” value is listed as “T?”.
`CC1=CC(C)=[N+]2CC[N+]3=C(C)C=C(C)[O][Co-3]23([n+]2c[nH]c(C)c2)([n+]2c[nH]c(C)c2)[O]1` [Compound 97]: the “TOXICITY EFFECTS CONTROL” value in data set [1] (setting [5]) is “-”; in data set [1] (setting [6]) it was “-”; in data set [1] (setting [7]), “-”; in data set [1] (setting [8]), “-”; in data set [1] (setting [9]) it was “+/-”; in data set [1] (setting [10]), “+/-”. For the same molecule, the “TOXICITY EFFECTS CONTROL” value is listed as “-” in data set [1] (setting [11]); “-” in data set [1] (setting [12]); “+/-” in data set [1] (setting [13]); “+/-” in data set [1] (setting [14]); “+/-” in data set [1] (setting [15]); “+” in data set [1] (setting [16]).
As for `CC1=CC(C)=[N+]2CC[N+]3=C(C)C=C(C)[O][Co-3]23([NH2])([NH3+])[O]1` [Compound 23, reference compound], the “TOXICITY EFFECTS CONTROLS” value in data set [1] (setting [17]), in data set [1] (setting [18]), in data set [1] (setting [19]), in data set [1] (setting [20]), in data set [1] (setting [21]) and in data set [1] (setting [22]) was “-” throughout. Further, the “TOXICITY EFFECTS CONTROLS” value is “+/-” in data set [1] (setting [23]); “+/-” in data set [1] (setting [24]); “-” in data set [1] (setting [37]); “-” in data set [1] (setting [38]); “-” in data set [1] (Experiment 5, Table 12, 48 Hours Post Incubation, 0.1 mg/ml); “-” in data set [1] (Experiment 5, Table 12, 48 Hours Post Incubation, 0.5 mg/ml). For the same molecule, the figures for the “TOXICITY EFFECTS CONTROLS” value in data set [1] (setting [39]), in data set [1] (setting [40]) and in data set [1] (setting [41]) were “-”, “+/-” and “+/-”, respectively. Also, the “VIRUCIDAL EFFICACY 7 Days Post Inoculation Efficacy” value in data set [3] is on record as “T?”.
